Data published in patent US20230293526A1, “METHOD FOR TREATING CANCER WITH A REVERSE TRANSCRIPTASE INHIBITOR” (PrimeFour Therapeutics, Inc., priority 2020, published 2023).

Test system: cancer cell lines
Experiment: Cancer cell proliferation activity of representative nucleosides, CellTiterGlo 72 h (Example 7, Tables 8 and 9)
Format: cell-based
Protocol: Dose response relationships on cell proliferation was assessed for representative nucleosides on cancer cell lines. Briefly, compound treatment of cells started one day after seeding with a final DMSO concentration of 0.1%, and was performed by nanodrop-dispensing using a Tecan Dispenser. 0.1% DMSO (solvent) and Staurosporine (10 μM) served as high control (100% viability) and low control (0% viability), respectively. Cells were cultured in the appropriate media. For the assays, cells were seeded in white cell culture-treated flat and clear bottom multiwell plates and incubated at 37° C. overnight before compound was added. After incubation for 72 h at 37° C. at 5% or 10% CO2 dependent on the medium, cell plates were equilibrated to room temperature for one hour, CellTiterGlo reagent (Promega) was added and luminescence was measured approximately an hour later using a luminometer.
Raw data were converted into percent cell viability relative to the high and low control, which were set to 100% and 0%, respectively.

Nc1ccn([C@H]2C[C@H](O)[C@](CO)(CF)O2)c(=O)n1 [compound 32]
IC50 (72 h, 5637, 72 h (Table 9)): 450 nM
IC50 (72 h, CLS439, 72 h (Table 9)): 2270 nM
IC50 (72 h, HS729, 72 h (Table 9)): 580 nM
IC50 (72 h, J82, 72 h (Table 9)): 760 nM
IC50 (72 h, JAR, 72 h (Table 9)): > 50000 nM
IC50 (72 h, MT3, 72 h (Table 9)): 80 nM
IC50 (72 h, PC3, 72 h (Table 9)): 180 nM
IC50 (72 h, RD, 72 h (Table 9)): 1030 nM
IC50 (72 h, T24, 72 h (Table 9)): 290 nM
IC50 (Homo sapiens, 22Rv1, 72 h, 22RV1, 72 h (Table 9)): 1330 nM
IC50 (Homo sapiens, 786-0, 72 h, 786O, 72 h (Table 9)): 1070 nM
IC50 (Homo sapiens, A204, 72 h, A204, 72 h (Table 9)): 20 nM
IC50 (Homo sapiens, A549, 72 h, A549, 72 h (Table 9)): 440 nM
IC50 (Homo sapiens, A673, 72 h, A673, 72 h (Table 9)): 1740 nM
IC50 (Homo sapiens, A2780, 72 h, A2780, 72 h (Table 9)): 720 nM
IC50 (Homo sapiens, A-375, 72 h, A375, 72 h (Table 9)): 710 nM
IC50 (Homo sapiens, A-431, 72 h, A431, 72 h (Table 9)): 470 nM
IC50 (Homo sapiens, ACHN, 72 h, 72 h (Table 9)): 390 nM
IC50 (Homo sapiens, ASPC1, 72 h, ASPC1, 72 h (Table 9)): 580 nM
IC50 (Homo sapiens, BT-20, 72 h, BT20, 72 h (Table 9)): 580 nM
IC50 (Homo sapiens, BXPC-3, 72 h, BXPC3, 72 h (Table 9)): 540 nM
IC50 (Homo sapiens, C-33-A, 72 h, C33A, 72 h (Table 9)): 240 nM
IC50 (Homo sapiens, CAKI-1, 72 h, CAKI1, 72 h (Table 9)): 110 nM
IC50 (Homo sapiens, COLO 205, 72 h, COLO205, 72 h (Table 9)): 210 nM
IC50 (Homo sapiens, COLO-678, 72 h, COLO678, 72 h (Table 9)): 3760 nM
IC50 (Homo sapiens, Ca-Ski, 72 h, CASKI, 72 h (Table 9)): 3960 nM
IC50 (Homo sapiens, Caco-2, 72 h, CACO2, 72 h (Table 9)): > 50000 nM
IC50 (Homo sapiens, Calu-6, 72 h, CALU6, 72 h (Table 9)): 720 nM
IC50 (Homo sapiens, DLD-1, 72 h, DLD1, 72 h (Table 9)): 2650 nM
IC50 (Homo sapiens, DU-145, 72 h, DU145, 72 h (Table 9)): 310 nM
IC50 (Homo sapiens, EFO-21, 72 h, EFO21, 72 h (Table 9)): 790 nM
IC50 (Homo sapiens, EJ-28, 72 h, EJ28, 72 h (Table 9)): 1530 nM
IC50 (Homo sapiens, Granta-519, 72 h, GRANTA-519, 72 h (Table 9)): 70 nM
IC50 (Homo sapiens, HCT-15, 72 h, HCT15, 72 h (Table 9)): 460 nM
IC50 (Homo sapiens, HCT-116, 72 h, HCT116, 72 h (Table 9)): 470 nM
IC50 (Homo sapiens, HEK293, 72 h, HEK293, 72 h (Table 9)): > 50000 nM
IC50 (Homo sapiens, HL-60, 72 h, HL-60, 72 h (Table 9)): 1010 nM
IC50 (Homo sapiens, HT-29, 72 h, HT29, 72 h (Table 9)): 1270 nM
IC50 (Homo sapiens, HT-1080, 72 h, HT1080, 72 h (Table 9)): 380 nM
IC50 (Homo sapiens, HeLa, 72 h, 72 h (Table 9)): 1000 nM
IC50 (Homo sapiens, HepG2, 72 h, HEPG2, 72 h (Table 9)): 1000 nM
IC50 (Homo sapiens, Hs-578T, 72 h, HS578T, 72 h (Table 9)): 970 nM
IC50 (Homo sapiens, IGROV-1, 72 h, IGROV1, 72 h (Table 9)): 510 nM
IC50 (Homo sapiens, IMR-90, 72 h, IMR90, 72 h (Table 9)): 1580 nM
IC50 (Homo sapiens, JEG-3, 72 h, JEG3, 72 h (Table 9)): 3340 nM
IC50 (Homo sapiens, JIMT-1, 72 h, JIMT1, 72 h (Table 9)): 190 nM
IC50 (Homo sapiens, K562, 72 h, K-562, 72 h (Table 9)): 4450 nM
IC50 (Homo sapiens, Kasumi 1, 72 h, KASUMI-1, 72 h (Table 9)): 270 nM
IC50 (Homo sapiens, L-363, 72 h, L-363, 72 h (Table 9)): > 50000 nM
IC50 (Homo sapiens, LoVo, 72 h, 72 h (Table 9)): 290 nM
IC50 (Homo sapiens, MCF7, 72 h, MCF7, 72 h (Table 9)): 3170 nM
IC50 (Homo sapiens, MDA-MB-231, 72 h, MDAMB231, 72 h (Table 9)): 100 nM
IC50 (Homo sapiens, MDA-MB-435, 72 h, MDAMB435, 72 h (Table 9)): 1300 nM
IC50 (Homo sapiens, MDA-MB-436, 72 h, MDAMB436, 72 h (Table 9)): 950 nM
IC50 (Homo sapiens, MDA-MB-468, 72 h, MDAMB468, 72 h (Table 9)): 3110 nM
IC50 (Homo sapiens, MG-63, 72 h, MG63, 72 h (Table 9)): 480 nM
IC50 (Homo sapiens, MHH-ES-1, 72 h, MHHES1, 72 h (Table 9)): 1660 nM
IC50 (Homo sapiens, MIA PaCa-2, 72 h, MIAPACA2, 72 h (Table 9)): 1150 nM
IC50 (Homo sapiens, MINO, 72 h, 72 h (Table 9)): 60 nM
IC50 (Homo sapiens, MV4-11, 72 h, MV4-11, 72 h (Table 9)): 840 nM
IC50 (Homo sapiens, NCI-H23, 72 h, NCI-H23, 72 h (Table 9)): 720 nM
IC50 (Homo sapiens, NCI-H82, 72 h, NCIH82, 72 h (Table 9)): 1150 nM
IC50 (Homo sapiens, NCI-H292, 72 h, NCIH292, 72 h (Table 9)): 920 nM
IC50 (Homo sapiens, NCI-H460, 72 h, NCIH460, 72 h (Table 9)): 770 nM
IC50 (Homo sapiens, OVCAR-3, 72 h, OVCAR3, 72 h (Table 9)): 640 nM
IC50 (Homo sapiens, OVCAR-4, 72 h, OVCAR4, 72 h (Table 9)): 8050 nM
IC50 (Homo sapiens, PANC-1, 72 h, PANC1, 72 h (Table 9)): 620 nM
IC50 (Homo sapiens, PLC-PRF-5, 72 h, PLCPRF5, 72 h (Table 9)): > 50000 nM
IC50 (Homo sapiens, Panc1005, 72 h, PANC1005, 72 h (Table 9)): > 50000 nM
IC50 (Homo sapiens, Ramos, 72 h, 72 h (Table 9)): 240 nM
IC50 (Homo sapiens, SAOS-2, 72 h, SAOS2, 72 h (Table 9)): 110 nM
IC50 (Homo sapiens, SF-268, 72 h, SF268, 72 h (Table 9)): 260 nM
IC50 (Homo sapiens, SF-295, 72 h, SF295, 72 h (Table 9)): 3250 nM
IC50 (Homo sapiens, SK-BR-3, 72 h, SKBR3, 72 h (Table 9)): 260 nM
IC50 (Homo sapiens, SK-HEP1, 72 h, SKHEP1, 72 h (Table 9)): 320 nM
IC50 (Homo sapiens, SK-LMS-1, 72 h, SKLMS1, 72 h (Table 9)): 860 nM
IC50 (Homo sapiens, SK-MEL-5, 72 h, SKMEL5, 72 h (Table 9)): 6180 nM
IC50 (Homo sapiens, SK-MEL-28, 72 h, SKMEL28, 72 h (Table 9)): 1320 nM
IC50 (Homo sapiens, SK-N-AS, 72 h, SKNAS, 72 h (Table 9)): 1220 nM
IC50 (Homo sapiens, SK-N-SH, 72 h, SKNSH, 72 h (Table 9)): > 50000 nM
IC50 (Homo sapiens, SK-OV-3, 72 h, SKOV3, 72 h (Table 9)): 1460 nM
IC50 (Homo sapiens, SNB-75, 72 h, SNB75, 72 h (Table 9)): 550 nM
IC50 (Homo sapiens, SU-DHL10, 72 h, SU-DHL-10, 72 h (Table 9)): 560 nM
IC50 (Homo sapiens, SU-DHL-6, 72 h, SU-DHL-6, 72 h (Table 9)): 310 nM
IC50 (Homo sapiens, SW-620, 72 h, SW620, 72 h (Table 9)): 1140 nM
IC50 (Homo sapiens, TE-671, 72 h, TE671, 72 h (Table 9)): 1020 nM
IC50 (Homo sapiens, THP-1, 72 h, THP-1, 72 h (Table 9)): 650 nM
IC50 (Homo sapiens, U2OS, 72 h, 72 h (Table 9)): 2450 nM
IC50 (Homo sapiens, U-87 MG, 72 h, U87MG, 72 h (Table 9)): 400 nM
IC50 (Homo sapiens, UMUC3, 72 h, UMUC3, 72 h (Table 9)): 1210 nM
IC50 (Homo sapiens, UO-31, 72 h, UO31, 72 h (Table 9)): 550 nM
IC50 (Homo sapiens, WSU-NHL, 72 h, 72 h (Table 9)): 150 nM
IC50 (NCI-H358M, 72 h, NCIH358M, 72 h (Table 9)): 120 nM
IC50 (PBMC, 72 h, 72 h (Table 9)): 710 nM
IC50 (RD-ES, 72 h, RDES, 72 h (Table 9)): 1900 nM
